From ChEMBL document CHEMBL5465560, “Selectivity Literature for EUbOPEN Chemogenomic Library” (2024)

Assays:
[1] = target: Fibroblast growth factor receptor 3 (Homo sapiens, UniProt P22607); assay: Selectivity interaction (Kinase panel (DSF assay)) EUB0001558a FGFR3
[2] = target: Phosphatidylinositol 4-phosphate 5-kinase type-1 gamma (Homo sapiens) (UniProt O60331); assay: Selectivity interaction (KinomeScan (DiscoverX)) EUB0000229b PIP5K1C; conditions: at 10 µM
[3] = target: Cyclin-dependent kinase 14 (Homo sapiens) (UniProt O94921); assay: Selectivity interaction (KinomeScan (DiscoverX)) EUB0000092b CDK14; conditions: at 10 µM
Sequence of Cyclin-dependent kinase 14 (Homo sapiens) (O94921 whole entry): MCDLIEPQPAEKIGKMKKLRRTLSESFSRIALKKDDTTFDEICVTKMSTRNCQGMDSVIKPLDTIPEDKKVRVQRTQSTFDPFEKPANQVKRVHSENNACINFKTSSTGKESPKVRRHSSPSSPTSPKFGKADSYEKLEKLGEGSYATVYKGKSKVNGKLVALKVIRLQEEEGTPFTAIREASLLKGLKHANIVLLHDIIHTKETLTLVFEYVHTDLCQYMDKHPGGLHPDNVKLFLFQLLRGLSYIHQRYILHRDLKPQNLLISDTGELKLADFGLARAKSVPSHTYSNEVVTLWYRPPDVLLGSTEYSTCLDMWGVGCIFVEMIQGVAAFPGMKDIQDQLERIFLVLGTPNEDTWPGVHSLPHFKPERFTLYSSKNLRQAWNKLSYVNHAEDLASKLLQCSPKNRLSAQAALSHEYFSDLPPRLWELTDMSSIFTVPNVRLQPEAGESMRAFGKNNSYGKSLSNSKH

[4] = target: Neuropeptide Y receptor type 1 (Homo sapiens, UniProt P25929); assay: Selectivity interaction (Neuropeptide Y Y1 receptor binding assay, human recombinant ) EUB0000877a NPY1R
Sequence of Neuropeptide Y receptor type 1 (P25929 whole entry): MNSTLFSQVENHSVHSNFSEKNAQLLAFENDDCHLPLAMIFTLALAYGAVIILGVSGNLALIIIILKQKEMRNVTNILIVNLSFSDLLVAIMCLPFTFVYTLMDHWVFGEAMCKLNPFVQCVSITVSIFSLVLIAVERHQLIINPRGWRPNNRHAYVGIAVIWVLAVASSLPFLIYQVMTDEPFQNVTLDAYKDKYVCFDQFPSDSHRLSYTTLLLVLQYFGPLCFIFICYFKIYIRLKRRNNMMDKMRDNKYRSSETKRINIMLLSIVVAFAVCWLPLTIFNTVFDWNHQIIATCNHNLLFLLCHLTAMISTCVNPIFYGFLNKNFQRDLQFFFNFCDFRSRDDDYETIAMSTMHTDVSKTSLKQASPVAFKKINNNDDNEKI

[5] = target: T1, Serine/threonine-protein kinase ULK3 (Homo sapiens) (UniProt Q6PHR2); assay: Selectivity interaction (LanthaScreen Eu Kinase Binding Assay) EUB0001632a ULK3; conditions: at 10 µM
T1 sequence (whole entry): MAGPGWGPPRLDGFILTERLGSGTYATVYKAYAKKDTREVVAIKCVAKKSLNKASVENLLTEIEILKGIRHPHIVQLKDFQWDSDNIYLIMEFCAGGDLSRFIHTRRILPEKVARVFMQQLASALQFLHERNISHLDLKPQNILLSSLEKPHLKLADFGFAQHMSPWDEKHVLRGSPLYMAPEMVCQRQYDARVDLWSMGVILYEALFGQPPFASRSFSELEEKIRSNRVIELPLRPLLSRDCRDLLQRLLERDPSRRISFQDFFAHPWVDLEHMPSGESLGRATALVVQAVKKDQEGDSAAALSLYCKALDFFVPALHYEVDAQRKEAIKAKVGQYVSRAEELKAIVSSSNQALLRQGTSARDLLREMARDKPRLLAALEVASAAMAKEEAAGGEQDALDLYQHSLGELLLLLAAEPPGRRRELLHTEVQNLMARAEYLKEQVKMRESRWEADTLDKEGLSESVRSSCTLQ

[6] = target: Serine/threonine-protein kinase PAK 6 (Homo sapiens) (UniProt Q9NQU5); assay: Selectivity interaction (KinomeScan (DiscoverX)) EUB0001049a PAK6; conditions: at 1 µM
Sequence of Serine/threonine-protein kinase PAK 6 (Homo sapiens) (Q9NQU5 whole entry, looked up): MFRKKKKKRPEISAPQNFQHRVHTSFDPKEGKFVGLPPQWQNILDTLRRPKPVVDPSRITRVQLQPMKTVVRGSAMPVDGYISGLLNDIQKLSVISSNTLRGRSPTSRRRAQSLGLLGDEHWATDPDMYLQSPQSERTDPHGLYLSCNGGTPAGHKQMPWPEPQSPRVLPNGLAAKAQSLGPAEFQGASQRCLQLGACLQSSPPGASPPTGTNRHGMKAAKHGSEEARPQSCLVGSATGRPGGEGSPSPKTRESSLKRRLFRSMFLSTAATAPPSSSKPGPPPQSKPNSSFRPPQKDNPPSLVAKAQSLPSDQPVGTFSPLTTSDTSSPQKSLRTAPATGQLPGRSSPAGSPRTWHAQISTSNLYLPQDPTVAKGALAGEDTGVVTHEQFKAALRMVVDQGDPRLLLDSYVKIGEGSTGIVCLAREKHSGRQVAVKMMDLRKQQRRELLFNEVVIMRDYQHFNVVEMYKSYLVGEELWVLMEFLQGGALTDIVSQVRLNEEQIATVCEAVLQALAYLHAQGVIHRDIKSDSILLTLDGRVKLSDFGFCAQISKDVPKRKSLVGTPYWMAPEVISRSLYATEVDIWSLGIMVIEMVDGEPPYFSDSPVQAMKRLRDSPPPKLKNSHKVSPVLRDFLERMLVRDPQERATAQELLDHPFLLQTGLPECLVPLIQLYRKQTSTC

[7] = target: T2, Cyclin-G-associated kinase (Homo sapiens) (UniProt O14976); assay: Selectivity interaction (KinomeScan (DiscoverX)) EUB0000695a GAK; conditions: at 100 nM
T2 sequence (whole entry): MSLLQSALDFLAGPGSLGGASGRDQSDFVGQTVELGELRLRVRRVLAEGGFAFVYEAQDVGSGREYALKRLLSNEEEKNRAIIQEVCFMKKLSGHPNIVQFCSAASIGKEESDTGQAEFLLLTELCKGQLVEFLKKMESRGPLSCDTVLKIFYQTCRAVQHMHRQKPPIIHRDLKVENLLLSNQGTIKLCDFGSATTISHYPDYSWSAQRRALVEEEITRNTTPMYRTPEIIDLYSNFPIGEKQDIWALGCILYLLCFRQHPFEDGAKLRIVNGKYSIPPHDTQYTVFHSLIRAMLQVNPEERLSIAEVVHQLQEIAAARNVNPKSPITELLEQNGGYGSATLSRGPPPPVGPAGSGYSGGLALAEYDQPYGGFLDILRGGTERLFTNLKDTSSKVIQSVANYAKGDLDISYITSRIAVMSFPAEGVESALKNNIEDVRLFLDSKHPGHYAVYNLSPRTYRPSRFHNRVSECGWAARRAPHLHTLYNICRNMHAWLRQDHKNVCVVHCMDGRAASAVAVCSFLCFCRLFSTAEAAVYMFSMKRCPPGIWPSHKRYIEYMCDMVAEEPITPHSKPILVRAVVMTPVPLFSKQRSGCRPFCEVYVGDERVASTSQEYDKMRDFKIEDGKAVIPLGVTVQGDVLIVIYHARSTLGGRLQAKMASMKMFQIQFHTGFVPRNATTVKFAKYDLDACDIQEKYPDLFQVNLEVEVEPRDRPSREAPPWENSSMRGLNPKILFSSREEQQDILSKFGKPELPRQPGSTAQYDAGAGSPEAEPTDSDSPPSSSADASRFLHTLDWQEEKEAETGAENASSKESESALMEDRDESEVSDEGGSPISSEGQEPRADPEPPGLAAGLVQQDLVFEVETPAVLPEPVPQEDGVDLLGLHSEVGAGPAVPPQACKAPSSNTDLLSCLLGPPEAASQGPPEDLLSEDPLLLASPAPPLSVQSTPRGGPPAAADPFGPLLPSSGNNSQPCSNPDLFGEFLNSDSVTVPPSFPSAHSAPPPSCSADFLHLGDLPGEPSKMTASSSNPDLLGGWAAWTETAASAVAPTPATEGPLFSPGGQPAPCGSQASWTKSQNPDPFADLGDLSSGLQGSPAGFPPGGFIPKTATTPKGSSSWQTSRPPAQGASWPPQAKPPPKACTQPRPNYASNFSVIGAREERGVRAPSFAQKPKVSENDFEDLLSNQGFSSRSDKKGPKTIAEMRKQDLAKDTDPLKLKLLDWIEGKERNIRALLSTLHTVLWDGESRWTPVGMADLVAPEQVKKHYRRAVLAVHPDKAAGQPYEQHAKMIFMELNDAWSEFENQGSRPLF

[8] = target: T3, Tyrosine-protein kinase ZAP-70 (Homo sapiens) (UniProt P43403); assay: Selectivity interaction (Kinase panel (literature)) EUB0001199aCl ZAP70; conditions: at 1 µM
T3 sequence (whole entry): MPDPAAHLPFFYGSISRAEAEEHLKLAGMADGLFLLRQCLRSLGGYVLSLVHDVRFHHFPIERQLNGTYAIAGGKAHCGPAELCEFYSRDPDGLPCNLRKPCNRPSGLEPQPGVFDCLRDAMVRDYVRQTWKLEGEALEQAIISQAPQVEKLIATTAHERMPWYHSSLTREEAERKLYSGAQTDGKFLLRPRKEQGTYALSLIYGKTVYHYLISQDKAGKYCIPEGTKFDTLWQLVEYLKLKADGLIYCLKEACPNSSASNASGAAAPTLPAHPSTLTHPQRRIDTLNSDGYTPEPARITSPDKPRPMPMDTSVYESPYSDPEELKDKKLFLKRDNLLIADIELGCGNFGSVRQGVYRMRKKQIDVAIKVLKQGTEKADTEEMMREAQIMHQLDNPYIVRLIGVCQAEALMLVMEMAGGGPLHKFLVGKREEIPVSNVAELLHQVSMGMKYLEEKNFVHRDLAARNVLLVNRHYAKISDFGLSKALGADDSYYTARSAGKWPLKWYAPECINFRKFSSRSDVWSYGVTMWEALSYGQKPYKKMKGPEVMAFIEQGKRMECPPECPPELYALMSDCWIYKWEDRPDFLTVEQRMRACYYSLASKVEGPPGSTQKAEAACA

[9] = target: Mitogen-activated protein kinase 7 (Homo sapiens) (UniProt Q13164); assay: Selectivity interaction (ActivX KiNativ screen (ex vivo kinase selectivity in human PBMCs)) EUB0001619a MAPK7; assay type: cell-based; conditions: PBMC, at 1 µM
Sequence of Mitogen-activated protein kinase 7 (Homo sapiens) (Q13164 2-816 limits assumed): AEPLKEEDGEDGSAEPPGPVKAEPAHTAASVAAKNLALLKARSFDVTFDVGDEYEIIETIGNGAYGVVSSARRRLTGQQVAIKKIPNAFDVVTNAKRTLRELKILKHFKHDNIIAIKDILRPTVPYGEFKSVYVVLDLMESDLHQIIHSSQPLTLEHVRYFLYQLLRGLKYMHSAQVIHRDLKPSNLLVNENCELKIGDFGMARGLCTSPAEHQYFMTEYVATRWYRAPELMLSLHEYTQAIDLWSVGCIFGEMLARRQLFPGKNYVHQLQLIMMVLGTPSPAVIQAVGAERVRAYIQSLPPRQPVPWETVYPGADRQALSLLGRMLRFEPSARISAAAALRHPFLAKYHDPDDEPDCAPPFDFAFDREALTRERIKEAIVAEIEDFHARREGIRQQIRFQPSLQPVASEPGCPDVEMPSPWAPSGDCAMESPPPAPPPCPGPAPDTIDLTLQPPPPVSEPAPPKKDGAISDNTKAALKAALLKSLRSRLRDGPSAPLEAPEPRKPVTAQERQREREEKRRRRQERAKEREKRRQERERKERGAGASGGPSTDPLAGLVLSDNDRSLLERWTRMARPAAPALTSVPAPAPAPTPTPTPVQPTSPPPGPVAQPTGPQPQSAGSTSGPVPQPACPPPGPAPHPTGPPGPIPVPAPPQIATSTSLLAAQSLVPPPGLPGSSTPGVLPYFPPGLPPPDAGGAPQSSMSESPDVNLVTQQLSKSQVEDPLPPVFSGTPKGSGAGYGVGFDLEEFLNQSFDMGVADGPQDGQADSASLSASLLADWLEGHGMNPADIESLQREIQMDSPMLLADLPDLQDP

[10] = target: Phosphorylase b kinase gamma catalytic chain, skeletal muscle/heart isoform (Homo sapiens) (UniProt Q16816); assay: Selectivity interaction (KinomeScan (DiscoverX)) EUB0001619a PHKG1; conditions: at 1 µM
Sequence of Phosphorylase b kinase gamma catalytic chain, skeletal muscle/heart isoform (Homo sapiens) (Q16816 whole entry, looked up, canonical isoform): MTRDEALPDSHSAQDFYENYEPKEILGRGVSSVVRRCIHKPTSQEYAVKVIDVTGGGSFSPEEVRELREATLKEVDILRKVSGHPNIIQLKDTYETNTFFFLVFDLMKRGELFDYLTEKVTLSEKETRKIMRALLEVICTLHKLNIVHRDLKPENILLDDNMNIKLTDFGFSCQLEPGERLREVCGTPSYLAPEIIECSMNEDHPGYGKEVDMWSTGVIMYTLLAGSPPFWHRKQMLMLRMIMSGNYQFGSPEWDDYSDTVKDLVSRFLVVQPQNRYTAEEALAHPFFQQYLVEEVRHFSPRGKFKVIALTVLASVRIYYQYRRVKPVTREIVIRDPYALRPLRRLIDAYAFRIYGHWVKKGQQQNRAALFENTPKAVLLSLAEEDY

Sequence of Phosphatidylinositol 4-phosphate 5-kinase type-1 gamma (Homo sapiens) (O60331 whole entry): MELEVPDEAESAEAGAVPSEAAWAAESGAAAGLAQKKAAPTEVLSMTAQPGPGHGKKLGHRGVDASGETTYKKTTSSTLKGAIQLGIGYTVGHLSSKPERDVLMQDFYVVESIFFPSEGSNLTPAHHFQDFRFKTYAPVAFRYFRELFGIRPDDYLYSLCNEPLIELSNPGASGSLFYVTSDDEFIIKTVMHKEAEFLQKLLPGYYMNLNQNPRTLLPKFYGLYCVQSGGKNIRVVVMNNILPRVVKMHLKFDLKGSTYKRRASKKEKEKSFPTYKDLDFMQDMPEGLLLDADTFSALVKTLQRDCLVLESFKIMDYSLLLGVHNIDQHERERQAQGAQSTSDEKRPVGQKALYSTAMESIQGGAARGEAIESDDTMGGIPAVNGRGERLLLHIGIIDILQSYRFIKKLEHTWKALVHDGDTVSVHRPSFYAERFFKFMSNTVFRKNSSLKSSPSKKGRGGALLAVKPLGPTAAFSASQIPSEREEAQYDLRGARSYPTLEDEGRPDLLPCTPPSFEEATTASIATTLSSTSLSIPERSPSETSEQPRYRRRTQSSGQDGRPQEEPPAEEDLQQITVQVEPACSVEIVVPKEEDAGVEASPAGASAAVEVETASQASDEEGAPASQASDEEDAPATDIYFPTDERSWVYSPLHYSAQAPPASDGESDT
Sequence of Fibroblast growth factor receptor 3 (P22607 23-806 limits assumed): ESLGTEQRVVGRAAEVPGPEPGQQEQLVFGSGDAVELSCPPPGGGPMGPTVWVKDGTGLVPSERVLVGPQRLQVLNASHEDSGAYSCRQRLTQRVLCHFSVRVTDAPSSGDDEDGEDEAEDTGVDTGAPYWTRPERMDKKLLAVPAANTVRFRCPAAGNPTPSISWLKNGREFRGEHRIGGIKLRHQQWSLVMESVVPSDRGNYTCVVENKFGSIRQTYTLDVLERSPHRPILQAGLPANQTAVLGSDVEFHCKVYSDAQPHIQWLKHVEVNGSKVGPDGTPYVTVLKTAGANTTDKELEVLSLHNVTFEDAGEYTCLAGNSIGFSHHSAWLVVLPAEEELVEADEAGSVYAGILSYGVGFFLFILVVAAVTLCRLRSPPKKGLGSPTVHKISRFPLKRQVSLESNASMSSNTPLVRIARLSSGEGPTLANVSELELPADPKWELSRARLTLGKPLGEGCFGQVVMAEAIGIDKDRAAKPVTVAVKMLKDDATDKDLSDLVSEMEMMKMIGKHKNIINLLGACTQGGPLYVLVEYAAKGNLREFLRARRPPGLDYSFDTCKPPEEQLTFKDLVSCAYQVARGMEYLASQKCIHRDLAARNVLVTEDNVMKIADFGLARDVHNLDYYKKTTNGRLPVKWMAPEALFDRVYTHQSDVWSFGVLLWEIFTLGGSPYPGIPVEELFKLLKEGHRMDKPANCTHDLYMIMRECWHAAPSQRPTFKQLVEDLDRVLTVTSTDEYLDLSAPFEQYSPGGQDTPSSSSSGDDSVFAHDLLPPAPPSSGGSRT

## CC(C)(O)[C@H](F)CN1Cc2cc(NC(=O)c3cnn4cccnc34)c(N3CCOCC3)cc2C1=O
[1]
  dTM: 2.5 K

## COc1cc(N(C)c2ccnc3ccc(C(F)(F)F)cc23)cc(OC)c1OC
[2]
  % binding: 53%

## CCC(=O)N1CCN(c2ccc(-n3c(=O)ccc4cnc5ccc(-c6cnc7ccccc7c6)cc5c43)cc2C(F)(F)F)CC1
[3]
  % of control: 99%

## CCC(=O)N1CC[C@H](Nc2ncnc3c2CN(c2cnc(OC)c(C(F)(F)F)c2)CC3)C1 [LENIOLISIB]
[4]
  IC50: > 30 µM

## Cn1cc(-n2cnc3c(NCc4nc5cc(Cl)c(Cl)cc5[nH]4)nc(N4CCOCC4)nc32)cn1
[5]
  % of inhibition: -290%

## COc1cc(Nc2nc(C)cc(-c3cnn4nc(OC)ccc34)n2)cc(C(F)(F)F)c1
[6]
  % of control: 75%

## Cc1cc(F)c(C(=O)Nc2cccc(-c3nncn3C(C)C)n2)cc1-n1cnc(C2CC2)c1
[7]
  % of control: 88%

## CN1Cc2nccc(-c3cn(C)nc3-c3ccc(F)cc3)c2C1=O
[8]
  % of inhibition: 6%

## N#Cc1cccc(-c2c[nH]c3ncnc(N4CCOCC4)c23)c1
[9]
  % of inhibition: -6%
[10]
  % of control: 81%
